# Measured values from patent US20050070510A1, “Substituted tetracycline compounds as synergistic antifungal agents” (Paratek Pharmaceuticals, Inc., priority 2001, published 2005).
# System: COS-1 cells
# Experiment: In vitro mammalian cytotoxicity assay (Resazurin)
# Conditions: not given
row,Structure (SMILES),In Vitro Cytotoxicity
1,CN(C)[C@@H]1C(O)=C(C(N)=O)C(=O)[C@@]2(C#N)C(O)=C3C(=O)c4c(ccc(NC5CCN(Cc6ccccc6)CC5)c4O)C[C@@]3(N)C[C@@]12N [SJ],* (toxicities greater than >25 μg/ml are represented by *)
2,CCCC/C(Cl)=C/c1ccc(O)c2c1C[C@@]1(N)C[C@@]3(N)[C@H](N(C)C)C(O)=C(C(N)=O)C(=O)[C@@]3(C#N)C(O)=C1C2=O [IH],** (toxicities less than 25 μg/mL are represented by **)
3,CN(C)[C@@H]1C(O)=C(C(N)=O)C(=O)[C@@]2(C#N)C(O)=C3C(=O)c4c(O)ccc(C#Cc5ccccc5)c4C[C@@]3(N)C[C@@]12N [FX],** (toxicities less than 25 μg/mL are represented by **)
4,CN(C)[C@@H]1C(O)=C(C(N)=O)C(=O)[C@@]2(C#N)C(O)=C3C(=O)c4c(O)c(CNC(=O)c5cccnc5)cc(CCC5CCCCC5)c4C[C@@]3(N)C[C@@]12N [JC],** (toxicities less than 25 μg/mL are represented by **)
5,CN(C)c1cc(CNC(=O)NCC(Cl)(Cl)Cl)c(O)c2c1C[C@@]1(N)C[C@@]3(N)[C@H](N(C)C)C(O)=C(C(N)=O)C(=O)[C@@]3(C#N)C(O)=C1C2=O [MX],** (toxicities less than 25 μg/mL are represented by **)
6,CSc1ccc(OC(=O)Nc2cc(N(C)C)c3c(c2O)C(=O)C2=C(O)[C@]4(C#N)C(=O)C(C(N)=O)=C(O)[C@@H](N(C)C)[C@]4(N)C[C@]2(N)C3)cc1 [KR],* (toxicities greater than >25 μg/ml are represented by *)
7,CCOc1ccc(-c2ccc(O)c3c2C[C@@]2(N)C[C@@]4(N)[C@H](N(C)C)C(O)=C(C(N)=O)C(=O)[C@@]4(C#N)C(O)=C2C3=O)cc1 [FT],** (toxicities less than 25 μg/mL are represented by **)
8,CN(C)c1cc(CNC(=O)C(Cc2ccccc2)N(C)C)c(O)c2c1C[C@@]1(N)C[C@@]3(N)[C@H](N(C)C)C(O)=C(C(N)=O)C(=O)[C@@]3(C#N)C(O)=C1C2=O (stereo partly drawn) [SU],** (toxicities less than 25 μg/mL are represented by **)
9,COc1ccc(C#Cc2ccc(O)c3c2C[C@@]2(N)C[C@@]4(N)[C@H](N(C)C)C(O)=C(C(N)=O)C(=O)[C@@]4(C#N)C(O)=C2C3=O)cc1 [FZ],** (toxicities less than 25 μg/mL are represented by **)
10,CN(C)c1cc(CNC(N)=O)c(O)c2c1C[C@@]1(N)C[C@@]3(N)[C@H](N(C)C)C(O)=C(C(N)=O)C(=O)[C@@]3(C#N)C(O)=C1C2=O [TD],* (toxicities greater than >25 μg/ml are represented by *)
11,CN(C)[C@@H]1C(O)=C(C(N)=O)C(=O)[C@@]2(C#N)C(O)=C3C(=O)c4c(O)ccc(-c5cccc(C(N)=O)c5)c4C[C@@]3(N)C[C@@]12N [IS],* (toxicities greater than >25 μg/ml are represented by *)
12,CN(C)[C@@H]1C(O)=C(C(N)=O)C(=O)[C@@]2(C#N)C(O)=C3C(=O)c4c(O)cccc4[C@H](N)[C@@]3(N)[C@H](OC(=O)Nc3ccc(O)cc3[N+](=O)O)[C@@]12N [BN],* (toxicities greater than >25 μg/ml are represented by *)
13,CN(C)[C@@H]1C(O)=C(C(N)=O)C(=O)[C@@]2(C#N)C(O)=C3C(=O)c4c(ccc(/C=C\C(=O)NC(C)(C)C)c4O)[C@H](N)[C@@]3(N)[C@H](O)[C@@]12N [JA],* (toxicities greater than >25 μg/ml are represented by *)
14,CCNC(=O)CNC(=O)c1cccc(-c2ccc(O)c3c2C[C@@]2(N)C[C@@]4(N)[C@H](N(C)C)C(O)=C(C(N)=O)C(=O)[C@@]4(C#N)C(O)=C2C3=O)c1 [PD],* (toxicities greater than >25 μg/ml are represented by *)
15,CN(C)[C@@H]1C(O)=C(C(N)=O)C(=O)[C@@]2(C#N)C(O)=C3C(=O)c4c(O)cccc4/C(=C\c4ccc(F)cc4)[C@@]3(N)[C@H](O)[C@@]12N [DS],** (toxicities less than 25 μg/mL are represented by **)
16,CN(C)[C@@H]1C(O)=C(C(N)=O)C(=O)[C@@]2(C#N)C(O)=C3C(=O)c4c(O)ccc(-c5cncnc5)c4C[C@@]3(N)C[C@@]12N [TQ],* (toxicities greater than >25 μg/ml are represented by *)
17,CN(C)[C@@H]1C(O)=C(C(N)=O)C(=O)[C@@]2(C#N)C(O)=C3C(=O)c4c(O)c(I)cc(I)c4[C@H](N)[C@@]3(N)[C@H](O)[C@@]12N [CT],** (toxicities less than 25 μg/mL are represented by **)
18,CN(C)c1cc(CCCNS(C)(=O)=O)c(O)c2c1C[C@@]1(N)C[C@@]3(N)[C@H](N(C)C)C(O)=C(C(N)=O)C(=O)[C@@]3(C#N)C(O)=C1C2=O [JX],* (toxicities greater than >25 μg/ml are represented by *)
19,COc1ccc(-c2cc(N(C)C)c3c(c2O)C(=O)C2=C(O)[C@]4(C#N)C(=O)C(C(N)=O)=C(O)[C@@H](N(C)C)[C@]4(N)C[C@]2(N)C3)cc1 [EA],** (toxicities less than 25 μg/mL are represented by **)
20,CN(C)c1cc(-c2ccc(CN3CCCC3)cc2)c(O)c2c1C[C@@]1(N)C[C@@]3(N)[C@H](N(C)C)C(O)=C(C(N)=O)C(=O)[C@@]3(C#N)C(O)=C1C2=O [JZ],** (toxicities less than 25 μg/mL are represented by **)
21,COC(=O)C#Cc1cc(N(C)C)c2c(c1O)C(=O)C1=C(O)[C@]3(C#N)C(=O)C(C(N)=O)=C(O)[C@@H](N(C)C)[C@]3(N)C[C@]1(N)C2 [JI],* (toxicities greater than >25 μg/ml are represented by *)
22,CN(C)[C@@H]1C(O)=C(C(N)=O)C(=O)[C@@]2(C#N)C(O)=C3C(=O)c4c(O)ccc(C5C=CCC5)c4C[C@@]3(N)C[C@@]12N (stereo partly drawn) [FD],** (toxicities less than 25 μg/mL are represented by **)
23,CN(C)[C@@H]1C(O)=C(C(N)=O)C(=O)[C@@]2(C#N)C(O)=C3C(=O)c4c(O)ccc(C#CC5CCCCC5)c4C[C@@]3(N)C[C@@]12N [FI],** (toxicities less than 25 μg/mL are represented by **)
24,CN(C)[C@@H]1C(O)=C(C(N)=O)C(=O)[C@@]2(C#N)C(O)=C3C(=O)c4c(O)ccc(I)c4[C@H](N)[C@@]3(N)[C@H](OC(=O)C3CCCCC3)[C@@]12N [CV],** (toxicities less than 25 μg/mL are represented by **)
25,CN(C)[C@@H]1C(O)=C(C(N)=O)C(=O)[C@@]2(C#N)C(O)=C3C(=O)c4c(ccc(Br)c4O)[C@H](N)[C@@]3(N)[C@H](O)[C@@]12N [CO],* (toxicities greater than >25 μg/ml are represented by *)
26,CN(C)[C@@H]1C(O)=C(C(N)=O)C(=O)[C@@]2(C#N)C(O)=C3C(=O)c4c(ccc(NC(=O)Nc5ccc(Cl)cc5C(F)(F)F)c4O)[C@H](N)[C@@]3(N)[C@H]([S+](N)[O-])[C@@]12N (stereo partly drawn) [BW],** (toxicities less than 25 μg/mL are represented by **)
27,COCCOC(=O)Nc1ccc(-c2ccc(O)c3c2C[C@@]2(N)C[C@@]4(N)[C@H](N(C)C)C(O)=C(C(N)=O)C(=O)[C@@]4(C#N)C(O)=C2C3=O)cc1 [PY],* (toxicities greater than >25 μg/ml are represented by *)
28,CN(C)c1cc(NCc2ccc3c(c2)OCO3)c(O)c2c1C[C@@]1(N)C[C@@]3(N)[C@H](N(C)C)C(O)=C(C(N)=O)C(=O)[C@@]3(C#N)C(O)=C1C2=O [MK],** (toxicities less than 25 μg/mL are represented by **)
29,CN(C)[C@@H]1C(O)=C(C(N)=O)C(=O)[C@@]2(C#N)C(O)=C3C(=O)c4c(O)ccc(-c5cccc(CN6CCCC6)c5)c4C[C@@]3(N)C[C@@]12N [HL],* (toxicities greater than >25 μg/ml are represented by *)

# System: Candida albicans (ATCC#90028)
# Experiment: Synergetic antifungal activity with amphotericin B, broth microdilution (NCCLS)
# Type: cell-based
# Conditions: amphotericin B alone
row,Structure (SMILES),amphotericin B MIC
1,C[C@@H]1[C@H](O)[C@@H](C)/C=C/C=C/C=C/C=C/C=C/C=C/C=C/[C@H](O[C@@H]2O[C@H](C)[C@@H](O)[C@H](N)[C@@H]2O)C[C@@H]2O[C@](O)(C[C@@H](O)C[C@@H](O)[C@H](O)CC[C@@H](O)C[C@@H](O)CC(=O)O[C@H]1C)C[C@H](O)[C@H]2C(=O)O [Amphotericin B],0.5 µg/mL
